Source: ChEMBL document CHEMBL5346977, “Discovery of Novel d-(+)-Biotin-Conjugated Resorcinol Dibenzyl Ether-Based PD-L1 Inhibitors for Targeted Cancer Immunotherapy” (J Med Chem, 2023)
pEC50: −log10 of the molar value. The source made the active and inactive calls. The calls are words filed in the database; no cut-off is given here.

Experiments:
Jurkat = assay: Cytotoxicity against human Jurkat T cells assessed as reduction in cell viability at 1.1 to 10 uM incubated for 48 hrs by CCK-8 assay; assay type: toxicity, cell-based; settings: dose 1.1-10 µM
HepG2 [1] = assay: Antitumor immunity activity against human HepG2 cells expressing human PD-L1 co-cultured with human Jurkat T cells expressing human PD-1 assessed as reduction in cell viability incubated for 48 hrs by CCK8 assay; assay type: functional, cell-based; settings: dose 1.1-10 µM
HepG2 [2] = assay: Antitumor immunity activity against human HepG2 cells expressing human PD-L1 co-cultured with human Jurkat T cells expressing human PD-1 assessed as reduction in cell viability at 10 uM incubated for 48 hrs by CCK8 assay relative to control; assay type: functional
[3] = molecular target: Programmed cell death protein 1/Programmed cell death 1 ligand 1 (Homo sapiens, UniProt Q9NZQ7); assay: Inhibition of interaction of PD-1 (unknown origin) expressed in Jurkat T cells carrying luciferase reporter under the control of NFAT promoter/PD-L1 (unknown origin) expressed in CHO cells co-expressing TCR ligand and T-cell surrogate pretreated with CHO cells for 0.5 hrs followed by Jurkat T cell addition and measured after 5 hrs by luminescence based analysis
[4] = AUC (0 to t) in Sprague-Dawley rat at 1 mg/kg, iv administered as single dose and measured after 48 hrs by HPLC-MS/MS analysis; assay type: ADME, organism-based; parameters: dose 1 mg/kg, time 48 hrs, route iv; settings: in vivo
[5] = AUC (0 to infinity) in Sprague-Dawley rat at 1 mg/kg, iv administered as single dose and measured after 48 hrs by HPLC-MS/MS analysis; assay type: ADME, organism-based; parameters: dose 1 mg/kg, time 48 hrs, route iv; settings: in vivo
[6] = MRT (0 to infinity) in Sprague-Dawley rat at 1 mg/kg, iv administered as single dose and measured after 48 hrs by HPLC-MS/MS analysis; assay type: ADME, organism-based; settings: in vivo
[7] = Clearance in Sprague-Dawley rat at 1 mg/kg, iv administered as single dose and measured after 48 hrs by HPLC-MS/MS analysis; assay type: ADME, organism-based; settings: in vivo
[8] = Apparent volume of distribution in Sprague-Dawley rat at 1 mg/kg, iv administered as single dose and measured after 48 hrs by HPLC-MS/MS analysis; assay type: ADME, organism-based; settings: in vivo, read-out: Vz
[9] = Initial drug concentration in Sprague-Dawley rat at 1 mg/kg, iv administered as single dose and measured after 48 hrs by HPLC-MS/MS analysis; assay type: ADME, organism-based; settings: in vivo
[10] = Half-life in Sprague-Dawley rat at 20 mg/kg, po measured after 48 hrs by HPLC-MS/MS analysis; assay type: ADME, organism-based; settings: in vivo
[11] = AUC (0 to t) in C57BL/6 mouse at 50 mg/kg, ip measured after 4 hrs by HPLC-MS/MS analysis; assay type: ADME, organism-based; parameters: time 4 hrs, dose 50 mg/kg, route ip; settings: in vivo
[12] = AUC (0 to infinity) in C57BL/6 mouse at 50 mg/kg, ip measured after 4 hrs by HPLC-MS/MS analysis; assay type: ADME, organism-based; parameters: dose 50 mg/kg, time 4 hrs, route ip; settings: in vivo
[13] = MRT (0 to t) in C57BL/6 mouse at 50 mg/kg, ip measured after 4 hrs by HPLC-MS/MS analysis; assay type: ADME, organism-based; settings: in vivo
[14] = MRT (0 to infinity) in C57BL/6 mouse at 50 mg/kg, ip measured after 4 hrs by HPLC-MS/MS analysis; assay type: ADME, organism-based; settings: in vivo
[15] = Tmax in C57BL/6 mouse at 50 mg/kg, ip measured after 4 hrs by HPLC-MS/MS analysis; assay type: ADME, organism-based; settings: in vivo
[16] = Clearance in C57BL/6 mouse at 50 mg/kg, ip measured after 4 hrs by HPLC-MS/MS analysis; assay type: ADME, organism-based; settings: in vivo
B16-F10 [17] = assay: Antitumor activity against mouse B16-F10 cells implanted in BALB/c mouse assessed as reduction in tumor weight at 50 mg/kg, ip administered once daily for 14 days relative to control; assay type: functional; parameters: scale not given: the % may be the effect or the level left; settings: time 14 day
B16-F10 [18] = assay: Antitumor activity against mouse B16-F10 cells implanted in syngeneic C57BL/6 mouse assessed as inhibition of tumor growth at 50 mg/kg, ip measured after 12 days; assay type: functional, organism-based; settings: time 12.0 day
B16-F10 [19] = assay: Antitumor activity against mouse B16-F10 cells implanted in syngeneic C57BL/6 mouse assessed as decrease in tumor weight at 50 mg/kg, ip measured after 12 days relative to control; assay type: functional; parameters: scale not given: the % may be the effect or the level left; settings: time 12 day
B16-F10 [20] = assay: Antitumor activity against mouse B16-F10 cells implanted in syngeneic C57BL/6 mouse assessed as decrease in tumor volume at 50 mg/kg, ip measured after 12 days relative to control; assay type: functional; parameters: scale not given: the % may be the effect or the level left; settings: time 12 day
[21] = Drug concentration in heart of C57BL/6 mouse implanted with mouse B16-F10 cells at 50 mg/kg, ip measured after 0.5 hrs by UPLC-MS/MS analysis; assay type: ADME, organism-based; settings: read-out: Ct
[22] = Drug concentration in lung of C57BL/6 mouse implanted with mouse B16-F10 cells at 50 mg/kg, ip measured after 0.5 hrs by UPLC-MS/MS analysis; assay type: ADME, organism-based; settings: read-out: Ct
[23] = Drug concentration in tumor of C57BL/6 mouse implanted with mouse B16-F10 cells at 50 mg/kg, ip measured after 0.5 hrs by UPLC-MS/MS analysis; assay type: ADME, organism-based, Neoplasm; settings: read-out: Ct
[24] = Drug concentration in brain of C57BL/6 mouse implanted with mouse B16-F10 cells at 50 mg/kg, ip measured after 0.5 hrs by UPLC-MS/MS analysis; assay type: ADME, organism-based; settings: read-out: Ct
[25] = Drug concentration in plasma of C57BL/6 mouse implanted with mouse B16-F10 cells at 50 mg/kg, ip measured after 0.5 hrs by UPLC-MS/MS analysis; assay type: ADME, organism-based
[26] = Drug concentration in spleen of C57BL/6 mouse implanted with mouse B16-F10 cells at 50 mg/kg, ip measured after 1 hrs by UPLC-MS/MS analysis; assay type: ADME, organism-based; settings: read-out: Ct
[27] = Drug concentration in heart of C57BL/6 mouse implanted with mouse B16-F10 cells at 50 mg/kg, ip measured after 2 hrs by UPLC-MS/MS analysis; assay type: ADME, organism-based; settings: read-out: Ct
[28] = Drug concentration in tumor of C57BL/6 mouse implanted with mouse B16-F10 cells at 50 mg/kg, ip measured after 2 hrs by UPLC-MS/MS analysis; assay type: ADME, organism-based, Neoplasm; settings: read-out: Ct
[29] = Drug concentration in plasma of C57BL/6 mouse implanted with mouse B16-F10 cells at 50 mg/kg, ip measured after 2 hrs by UPLC-MS/MS analysis; assay type: ADME, organism-based
[30] = Drug concentration in heart of C57BL/6 mouse implanted with mouse B16-F10 cells at 50 mg/kg, ip measured after 4 hrs by UPLC-MS/MS analysis; assay type: ADME, organism-based; settings: read-out: Ct
[31] = Drug concentration in kidney of C57BL/6 mouse implanted with mouse B16-F10 cells at 50 mg/kg, ip measured after 4 hrs by UPLC-MS/MS analysis; assay type: ADME, organism-based; settings: read-out: Ct
[32] = Drug concentration in plasma of C57BL/6 mouse implanted with mouse B16-F10 cells at 50 mg/kg, ip measured after 4 hrs by UPLC-MS/MS analysis; assay type: ADME, organism-based
B16-F10 [33] = assay: Antitumor immunity against mouse B16-F10 cells implanted in allogenic BALB/c mouse assessed as increase in CD3+ CD4+ T cells percentage at 50 mg/kg, ip by flow cytometric analysis; assay type: functional, organism-based
B16-F10 [34] = assay: Antitumor activity against mouse B16-F10 cells implanted in allogenic BALB/c mouse assessed as increase in CXCR3 mRNA level in tumor at 50 mg/kg, ip by qPCR analysis; assay type: functional, organism-based
[35] = Toxicity in allogenic BALB/c mouse implanted with mouse B16-F10 cells assessed as severe crypt necrosis in colon at 50 mg/kg, ip by H&E staining based analysis; assay type: organism-based; settings: in vivo

Sequence of Programmed cell death protein 1/Programmed cell death 1 ligand 1 (Q15116 whole entry): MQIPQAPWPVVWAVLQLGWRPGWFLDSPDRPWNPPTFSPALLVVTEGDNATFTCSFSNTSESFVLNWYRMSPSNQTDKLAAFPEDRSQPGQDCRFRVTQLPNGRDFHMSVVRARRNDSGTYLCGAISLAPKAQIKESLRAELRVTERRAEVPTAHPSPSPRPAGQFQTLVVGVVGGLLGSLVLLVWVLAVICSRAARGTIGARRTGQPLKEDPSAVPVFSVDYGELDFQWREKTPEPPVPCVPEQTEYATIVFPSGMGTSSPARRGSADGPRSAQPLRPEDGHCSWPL
Sequence of Programmed cell death protein 1/Programmed cell death 1 ligand 1 (Q9NZQ7 whole entry): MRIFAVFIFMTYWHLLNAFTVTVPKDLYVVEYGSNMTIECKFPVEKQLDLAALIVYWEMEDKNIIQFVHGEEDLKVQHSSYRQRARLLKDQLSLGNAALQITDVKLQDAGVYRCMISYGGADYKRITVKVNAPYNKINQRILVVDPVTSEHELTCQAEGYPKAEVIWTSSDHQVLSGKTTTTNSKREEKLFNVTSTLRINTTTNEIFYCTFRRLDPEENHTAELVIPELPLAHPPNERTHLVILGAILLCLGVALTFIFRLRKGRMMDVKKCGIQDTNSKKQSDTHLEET

**Q.** With `Cc1c(COc2cc(OCc3cccc(C#N)c3)c(CN3CCCCC3C(=O)NCCNC(=O)CCCC[C@@H]3SC[C@@H]4NC(=O)N[C@@H]43)cc2Cl)cccc1-c1ccccc1` (stereo partly specified) as the compound, how does the Activity (Jurkat) read?
**A.** The Activity was “Non-Toxic”.

**Q.** What about the Activity (HepG2 [1]) of the same compound?
**A.** The Activity was “Dose-Dependent Effect”.

**Q.** And the Activity (HepG2 [2])?
**A.** Its Activity is 2.7%.

**Q.** What about the pEC50 [3] of the same compound?
**A.** Its pEC50 is 6.04.

**Q.** And the AUCt [4]?
**A.** Its AUCt is 0.719 µg·h/mL.

**Q.** What about the AUC [5] of the same compound?
**A.** Its AUC is 0.832 µg·h/mL.

**Q.** What about the MRT inf [6] of the same compound?
**A.** Its MRT inf is 19.9 h.

**Q.** What about the clearance [7] of the same compound?
**A.** Its clearance is 1.3 L/h/kg.

**Q.** And the Vd [8]?
**A.** Its Vd is 31 L/kg.

**Q.** What about the C0 at 48 h [9] of the same compound?
**A.** Its C0 at 48 h is 0.257 µg/mL.

**Q.** What about the half-life [10] of the same compound?
**A.** Its half-life is 2.6 h.

**Q.** And the AUCt [11]?
**A.** The AUCt was 4673.237 µg/L/h.

**Q.** And the AUC [12]?
**A.** The AUC was 14501.641 µg/L/h.

**Q.** And the MRT last at 4 h [13]?
**A.** The MRT last at 4 h was 2.24 h.

**Q.** What about the MRT inf [14] of the same compound?
**A.** The MRT inf was 9.84 h.

**Q.** What about the Tmax [15] of the same compound?
**A.** Its Tmax is 2.4 h.

**Q.** And the CL [16]?
**A.** The CL was 7.353 L/h/kg.

**Q.** What about the Activity (B16-F10 [17]) of the same compound?
**A.** Its Activity is 66.1%.

**Q.** What about the Activity (B16-F10 [18]) of the same compound?
**A.** The Activity was “Active”.

**Q.** What about the Activity (B16-F10 [19]) of the same compound?
**A.** Its Activity is 39.1%.

**Q.** What about the Activity (B16-F10 [20]) of the same compound?
**A.** The Activity was 52.6%.

**Q.** And the concentration at 0.5 h [21]?
**A.** Its concentration at 0.5 h is 0.0047 µg/mL.

**Q.** What about the concentration at 0.5 h [22] of the same compound?
**A.** The concentration at 0.5 h was 0.285 µg/mL.

**Q.** What about the concentration at 0.5 h [23] of the same compound?
**A.** Its concentration at 0.5 h is 0.0155 µg/mL.

**Q.** What about the concentration at 0.5 h [24] of the same compound?
**A.** Its concentration at 0.5 h is 0.0025 µg/mL.

**Q.** And the concentration at 0.5 h [25]?
**A.** The concentration at 0.5 h was 0.91 µg/mL.

**Q.** What about the concentration at 1 h [26] of the same compound?
**A.** Its concentration at 1 h is 3.47 µg/mL.

**Q.** What about the concentration at 2 h [27] of the same compound?
**A.** The concentration at 2 h was 0.0124 µg/mL.

**Q.** What about the concentration at 2 h [28] of the same compound?
**A.** The concentration at 2 h was 0.404 µg/mL.

**Q.** What about the concentration at 2 h [29] of the same compound?
**A.** The concentration at 2 h was 1.4 µg/mL.

**Q.** And the concentration at 4 h [30]?
**A.** The concentration at 4 h was 0.0163 µg/mL.

**Q.** What about the concentration at 4 h [31] of the same compound?
**A.** The concentration at 4 h was 0.38 µg/mL.

**Q.** What about the concentration at 4 h [32] of the same compound?
**A.** The concentration at 4 h was 1.46 µg/mL.

**Q.** What about the Activity (B16-F10 [33]) of the same compound?
**A.** Its Activity is “Active”.

**Q.** And the Activity (B16-F10 [34])?
**A.** The Activity was “Active”.

**Q.** What about the Activity [35] of the same compound?
**A.** The Activity was “Non-Toxic”.
